Key:
skin = experiment: Tolerance of the preparation by the subjects in both tests; type: in vivo, healthy female volunteers; conditions: topical 4% (weight/volume) preparation
Protocol: (§1) The test was conducted on two test groups, each one of which comprised six healthy female volunteers. In the first test group (group 1), four cutaneous test areas were defined on the arm of each subject, and microcirculation was first measured for 30 minutes before the preparation was added. The skin was then cut by scraping in all the four areas, and onto the skin was pressed a filter paper into which a solution had been absorbed that contained 14 μl/cm^2 of 4% (weight/volume) trimethylglycine in distilled water, or only distilled water (placebo). Subsequently, microcirculation was measured for 60 minutes at the erythematous, damaged points on the skin, treated with the solution. In the second test group (group 2), the subjects' microcirculation was measured at the erythema in the same way as above, but the irritation was here caused by 30-minute infrared irradiation (IR Philips 250 S lamps, spectrum 700 to 2500 nm, power 250 W, light energy 70 mW/cm^2, irradiation area 14 cm^2) in the four cutaneous areas defined on the upper back.

[1] = test system: mechanical skin irritation; experiment: Thermal conductivity of the skin (microcirculation), skin cut by scraping, group 1; type: in vivo, healthy female volunteers; conditions: for % Variation, treated area/untreated area 1 (microcirculation): 4% (weight/volume) in distilled water, mean ± standard error; for % Variation, treated area/untreated area 1 (microcirculation) / Mean values of thermal conductivity (K), treated area: n=6
Protocol: (§2) The effect of trimethylglycine on the skin was studied by measuring the thermal conductivity of the skin by a method described by A. Dittmar in Cutaneous investigation in health and disease. Non-invasive methods and instrumentation, ed. J. L. Lévêque, Marcel Dekker Inc., New York-Basel, 1989. The method correlates directly with microcirculation on the skin. Thermal conductivity (K) is measured from the skin with a specific Hematron® thermal sensor and transformed into an electric signal, which is recorded by a recorder. In thermal conductivity (ΔK), a significant level of variation is 0.1 mW/cm.°C.
as §1, with “solution.” for “solution. In the second test group (group 2), the subjects' microcirculation was measured at the erythema in the same way as above, but the irritation was here caused by 30-minute infrared irradiation (IR Philips 250 S lamps, spectrum 700 to 2500 nm, power 250 W, light energy 70 mW/cm^2, irradiation area 14 cm^2) in the four cutaneous areas defined on the upper back.”
(§3) The thermal conductivity values measured on each volunteer subject are shown in table 1 (group 1) and table 2 (group 2). Tables 1 and 2 show the mean values (n=6) of thermal conductivity (K expressed as mW/cm .°C.) in the treated area, placebo area, and untreated areas at different instances of measuring. In tables 1 and 2, the treated area means an area treated with a preparation containing trimethylglycine; untreated area 1 is an untreated area that is symmetric with the area treated with the preparation containing trimethylglycine; the placebo area means an area treated with a placebo; and untreated area 2 is an untreated area that is symmetric with the area treated with the placebo.
(§4) Per /cent (%) variations between the treated area and untreated area 1, and the placebo area and untreated area 2 were calculated for each volunteer subject 30 and 60 min after application of the product. The variations were calculated using the formula [formula]

[2] = pure form; in water and in lower alcohols, such as methanol and ethanol; cited from earlier work
thermal skin irritation = experiment: Thermal conductivity of the skin (microcirculation), infrared irradiation, group 2; type: in vivo, healthy female volunteers
Protocol: as §2
In the second test group (group 2), the subjects' microcirculation was measured at the erythema in the same way as above, but the irritation was here caused by 30-minute infrared irradiation (IR Philips 250 S lamps, spectrum 700 to 2500 nm, power 250 W, light energy 70 mW/cm^2, irradiation area 14 cm^2) in the four cutaneous areas defined on the upper back.
as §3, §4

For `C[N+](C)(C)CC(=O)[O-]` [trimethylglycine], the “Tolerance / sensitivity of the subjects” value (skin) was “tolerated the trimethylglycine preparation well”, the “% Variation, treated area/untreated area 1 (microcirculation)” value ([1]; group 1, t30 min) was -8.9±8.6% and the “% Variation, treated area/untreated area 1 (microcirculation)” value ([1]; group 1, t60 min) was -15.0±8.8%. The “Effect against mechanical erythema as compared with the placebo” value ([1]; group 1, 4% (weight/volume) in water, effect detected 60 min after the application) was “effective against mechanical erythema”, the “Mean values of thermal conductivity (K), treated area” value (“Mean values of thermal conductivity” for short) ([1]; t0, before application of product, arm skin) was 3.82 ± 0.59 mW/cm · ° C and the “Mean values of thermal conductivity” value ([1]; t30, 30 min after application of 4% (weight/volume) trimethylglycine in distilled water, 14 μl/cm^2, skin cut by scraping) was 3.66 ± 0.69 mW/cm · ° C. For the same molecule, the “Mean values of thermal conductivity” value ([1]; t60, 60 min after application of 4% (weight/volume) trimethylglycine in distilled water, 14 μl/cm^2, skin cut by scraping) was 3.42 ± 0.41 mW/cm · ° C, the Solubility [2] was “readily soluble” and the “% Variation, treated area/untreated area 1 (microcirculation)” value (thermal skin irritation; group 2, t30 min, 4% (weight/volume) in distilled water, mean ± standard error, n=6) was 23.5±11.8%. The “Effect on thermal erythema” value (thermal skin irritation; group 2, preparation containing trimethylglycine) was “no effect on thermal erythema”, the “Mean values of thermal conductivity” value (thermal skin irritation; t0, before application of product, upper back, n=6) was 3.13 ± 0.30 mW/cm · ° C and the “Mean values of thermal conductivity” value (thermal skin irritation; t30, 30 min after application of 4% (weight/volume) trimethylglycine in distilled water, 30-minute infrared irradiation, n=6) was 3.85 ± 0.31 mW/cm · ° C. The “Mean values of thermal conductivity” value (thermal skin irritation; t60, 60 min after application of 4% (weight/volume) trimethylglycine in distilled water, 30-minute infrared irradiation, n=6) was 3.60 ± 0.38 mW/cm · ° C.

— patent US20020018788A1, “PREPARATION PROTECTING SKIN FROM MECHANICAL IRRITATION” (priority 1996, published 2002)
